Earlier results in patent publication US12115139B2, “Treatment methods and processes for an infected nail” (priority 2018, dated 2024).
Where “and” joins values, the source holds several entries; their conditions need not be identical. Equal values may be shown once. Where a name gives a salt, the structure may show the parent alone.

Tested on: nail infections
Settings: for side effects compared with Lamisil: oral treatment

For `C=C1CCN([C@H](C)[C@](O)(Cn2cncn2)c2ccc(F)cc2F)CC1` [efinaconazole], the cure rates (topical, only mild infections not involving the nail bed) is listed as 17.8% and 15.2%.
In the case of `OB1OCc2cc(F)ccc21` [Tavaborole, tavaborole], the complete cure (topical, share of the 600 patients in the study) is listed as 6%.
For `C[C@@H](n1cnc2cc(Cl)ccc2c1=O)[C@](O)(Cn1cncn1)c1ccc(F)cc1F` [Albaconazole], the “side effects compared with Lamisil” value is given as “fewer side effects”.
In the case of `CC[C@@H]([C@H](C)O)n1ncn(-c2ccc(N3CCN(c4ccc(OC[C@@H]5CO[C@@](Cn6cncn6)(c6ccc(F)cc6F)C5)cc4)CC3)cc2)c1=O` [Posaconazole], the “side effects compared with Lamisil” value is listed as “fewer side effects”.
In the case of `Cc1cc(C2CCCCC2)n(O)c(=O)c1` [Ciclopirox, ciclopirox], the cure rate (topical, 8% strength) is listed as “about 8.5%”.
In the case of `CCC(C)(C)c1ccc(CC(C)CN2C[C@@H](C)O[C@@H](C)C2)cc1` (stereo partly shown) [Amorolfine, amorolfine], the “effectiveness against severe nail infections” value (topical, severe nail infections involving the nail bed) is listed as “not effective”.
For `CN(C/C=C/C#CC(C)(C)C)Cc1cccc2ccccc12` [Lamisil, terbinafine hydrochloride], the mycological cure rate (oral treatment of nail infections) is given as 46%.
